Experimental data taken from US6949536B2, “Sulfonylbenzene compounds as anti-inflammatory/analgesic agents” (Pfizer, Inc., priority 1998, dated 2005).
Counter-ions that a name gives are not always drawn.

SMILES | melting point
CS(=O)(=O)c1ccc(-n2nc(C(F)(F)F)cc2-c2ccc(-c3ncco3)cc2)cc1F [Example 96, 2-{4-[1-[3-Fluoro-4-(methylsulfonyl)phenyl]-3-(trifluoromethyl)-1H-pyrazol-5-yl]phenyl}-1,3-oxazole] | 140 to 142 °C
NS(=O)(=O)c1ccc(-n2nc(C(F)(F)F)cc2-c2ccc(-c3cscn3)c(C(F)(F)F)c2)cc1F [Example 176, 2-Fluoro-4-[5-[4-(1,3-thiazol-4-yl)-3-(trifluoromethyl)phenyl]-3-(trifluoromethyl)-1H-pyrazol-1-yl]benzenesulfonamide] | 140 to 142 °C
Cc1ccc(-c2ccc(S(C)(=O)=O)cc2)n1-c1ccc(-c2ccsc2)cc1 [Example 46, 2-Methyl-5-[4-(methylsulfonyl)phenyl]-1-[4-(3-thienyl)phenyl]-1H-pyrrole] | 187 to 188 °C
CNC(=O)c1cc(-c2ccc(-c3ccco3)cc2)n(-c2ccc(S(C)(=O)=O)c(F)c2)n1 [Example 131, N-Methyl-1-[3-fluoro-4-(methylsulfonyl)phenyl]-5-[4-(2-furyl)phenyl]-1H-pyrazole-3-carboxamide] | 196 to 198 °C
CS(=O)(=O)c1ccc(-n2ncc(C#N)c2-c2ccc(-c3ccco3)cc2)cc1F [Example 163, 4-Cyano-1-[3-fluoro-4-(methylsulfonyl)phenyl]-5-[4-(2-furyl)phenyl]-1H-pyrazole] | 153 to 157 °C
CS(=O)(=O)c1ccc(-n2nc(C(F)(F)F)cc2-c2ccc(-c3nccs3)cc2)cc1 [Example 22, 1-[4-(Methylsulfonyl)phenyl]-5-[4-(2-thiazolyl)phenyl]-3-trifluoromethyl-1H-pyrazole] | 206 to 207 °C
NS(=O)(=O)c1ccc(-n2nc(C(F)(F)F)cc2-c2ccc(-c3cscn3)c(F)c2)cc1F (as salt: hydrochloride) [Example 114, 2-Fluoro-4-[5-[3-fluoro-4-(1,3-thiazol-4-yl)phenyl]-3-(trifluoromethyl)-1H-pyrazol-1-yl]benzenesulfonamide] | 196 to 198 °C
COc1cc(-n2nc(C(F)(F)F)cc2-c2ccc(-c3ccco3)cc2)ccc1S(N)(=O)=O (as salt: hydrochloride) [Example 148, 4-[5-[4-(2-Furyl)phenyl]-3-(trifluoromethyl)-1H-pyrazol-1-yl]-2-methoxybenzenesulfonamide] | 206.7 °C
Cc1cc(-n2nc(C(F)(F)F)cc2-c2ccc(-c3ccco3)cc2)ccc1S(N)(=O)=O (as salt: hydrochloride) [Example 143, 4-[5-[4-(2-Furyl)phenyl]-3-(trifluoromethyl)-1H-pyrazol-1-yl]-2-methylbenzenesulfonamide] | 137.4 °C
COc1cc(-c2cc(C(F)(F)F)nn2-c2ccc(S(N)(=O)=O)c(F)c2)ccc1-c1cscn1 (as salt: hydrochloride) [Example 175, 2-Fluoro-4-[5-[3-methoxy-4-(1,3-thiazol-4-yl)phenyl]-3-(trifluoromethyl)-1H-pyrazol-1-yl]benzenesulfonamide] | 97 to 99 °C
CS(=O)(=O)c1ccc(-n2nc(C(N)=O)cc2-c2ccc(-c3ccco3)cc2)cc1F [Example 132, 1-[3-Fluoro-4-(methylsulfonyl)phenyl]-5-[4-(2-furyl)phenyl]-1H-pyrazole-3-carboxamide] | 239 to 240 °C
NS(=O)(=O)c1ccc(-n2nc(C(F)(F)F)cc2-c2ccc(-c3ncco3)cc2)cc1 (as salt: hydrochloride) [Example 98, 4-[5-[4-(1,3-Oxazol-2-yl)phenyl]-3-(trifluoromethyl)-1H-pyrazol-1-yl]benzenesulfonamide] | 215 to 217 °C
CS(=O)(=O)c1ccc(-n2nc(C(F)(F)F)cc2-c2ccc(-c3ccoc3)cc2)cc1 [Example 20, 1-[4-(Methylsulfonyl)phenyl]-5-[4-(3-furyl)phenyl]-3-trifluoromethyl-1H-pyrazole] | 165 to 166 °C
NS(=O)(=O)c1ccc(-n2nc(C(F)(F)F)cc2-c2ccc(-c3cocn3)cc2)cc1 (as salt: hydrochloride) [Example 118, 4-[5-[4-(1,3-Oxazol-4-yl)phenyl]-3-(trifluoromethyl)-1H-pyrazol-1-yl]benzenesulfonamide] | 170 to 172 °C
Cc1cc(-n2nc(C(F)(F)F)cc2-c2ccc(-c3ccco3)cc2)ccc1S(C)(=O)=O (as salt: hydrochloride) [Example 157, 5-[4-(2-Furyl)phenyl]-1-[3-methyl-4-(methylsulfonyl)phenyl]-3-(trifluoromethyl)-1H-pyrazole] | 135 to 139 °C
CC1(C)OC(=O)C(c2ccc(-c3cscn3)cc2)=C1c1ccc(S(C)(=O)=O)cc1 [Example 166, 5,5-Dimethyl-4-[4-(methylsulfonyl)phenyl]-3-[4-(1,3-thiazol-4-yl)phenyl]-2(5H)-furanone] | 215.8 °C
CS(=O)(=O)c1ccc(-n2nc(C(F)(F)F)cc2-c2ccc(-c3ccco3)cc2)cc1F [Example 60, 1-[3-Fluoro-4-(methylsulfonyl)phenyl]-5-[4-(2-furyl)phenyl]-3-(trifluoromethyl)-1H-pyrazole] | 129 to 130 °C

SMILES | melting point
CS(=O)(=O)c1ccc(-n2nc(C(F)(F)F)cc2-c2ccc(-c3cnco3)cc2)cc1 (as salt: hydrochloride) [Example 76, 1-[4-(Methylsulfonyl)phenyl]-5-[4-(5-oxazolyl)phenyl]-3-(trifluoromethyl)-1H-pyrazole] | 178 to 180 °C
Cc1nc(-c2ccc(-c3cccs3)cc2)c(-c2ccc(S(C)(=O)=O)cc2)o1 [Example 50, 2-Methyl-5-[4-(methylsulfonyl)phenyl]-4-[4-(2-thienyl)phenyl]oxazole] | 183 to 185 °C
CS(=O)(=O)c1ccc(-n2nc(C(F)(F)F)cc2-c2ccc(-c3cscn3)c(F)c2)cc1 (as salt: hydrochloride) [Example 124, 4-{2-Fluoro-4-[1-[4-(methylsulfonyl)phenyl]-3-(trifluoromethyl)-1H-pyrazol-5-yl]phenyl}-1,3-thiazole] | 176 to 178 °C
CS(=O)(=O)c1ccc(-n2nc(C(F)(F)F)cc2-c2ccc(-c3ccoc3)cc2)cc1F [Example 85, 1-[3-Fluoro-4-(methylsulfonyl)phenyl]-5-[4-(3-furyl)phenyl]-3-(trifluoromethyl)-1H-pyrazole] | 74 to 76 °C
Cc1nc(-c2ccc(S(N)(=O)=O)c(F)c2)c(-c2ccc(-c3cscn3)cc2)o1 [Example 193, 2-fluoro-4-[2-methyl-5-[4-(1,3-thiazol-4-yl)phenyl]-1,3-oxazol-4-yl]benzenesulfonamide] | 192 to 194 °C
NS(=O)(=O)c1ccc(-n2nc(C(F)(F)F)cc2-c2ccc(-c3cscn3)c(O)c2)cc1F (as salt: hydrochloride) [Example 174, 2-Fluoro-4-[5-[3-hydroxy-4-(1,3-thiazol-4-yl)phenyl]-3-(trifluoromethyl)-1H-pyrazol-1-yl]benzenesulfonamide] | 224 to 226 °C
Cc1cc(C2=C(c3ccc(S(C)(=O)=O)cc3)C(C)(C)OC2=O)ccc1-c1cscn1 [Example 184, 5,5-Dimethyl-3-[3-methyl-4-(1,3-thiazol-4-yl)phenyl]-4-[4-(methylsulfonyl)phenyl]-2(5H)-furanone] | 180.3 °C
CS(=O)(=O)c1ccc(-n2nc(C(F)(F)F)cc2-c2ccc(-c3cc4ccccc4o3)cc2)cc1 [Example 4, 1-[4-(Methylsulfonyl)phenyl]-5-[4-(benzo[b]furan-2-yl)phenyl]-3-trifluoromethyl-1H-pyrazole] | 137 to 138 °C
Cc1cc(-c2ccc(S(C)(=O)=O)cc2)n(-c2ccc(-c3ccco3)cc2)c1 [Example 58, 1-[4-(2-Furyl)phenyl]-4-methyl-2-[4-(methylsulfonyl)phenyl]-1H-pyrrole] | 133 to 135 °C
CS(=O)(=O)c1ccc(-n2nc(C(F)(F)F)cc2-c2ccc(-c3cscn3)cc2)cc1F [Example 99, 4-{4-[1-[3-Fluoro-4-(methylsulfonyl)phenyl]-3-(trifluoromethyl)-1H-pyrazol-5-yl]phenyl}-1,3-thiazole] | 125 to 127 °C
Cc1cc(-c2cc(C(F)(F)F)nn2-c2ccc(S(C)(=O)=O)cc2)ccc1-c1ccco1 (as salt: hydrochloride) [Example 31, 1-[4-(Methylsulfonyl)phenyl]-5-[4-(2-furyl)-3-methylphenyl]-3-(trifluoromethyl)-1H-pyrazole] | 174 to 176 °C
Cc1cn(-c2ccc(S(N)(=O)=O)c(F)c2)c(-c2ccc(-c3cscn3)cc2)n1 [Example 179, 2-Fluoro-4-[4-methyl-2-[4-(4-thiazolyl)phenyl]-1H-imidazol-1-yl]benzenesulfonamide] | 145 to 147 °C
Cc1ccc(-c2ccc(S(C)(=O)=O)cc2)n1-c1ccc(-c2ccco2)c(Cl)c1 [Example 42, 1-[3-Chloro-4-(2-furyl)phenyl]-2-methyl-5-[4-(methylsulfonyl)phenyl]-1H-pyrrole] | 127 to 131 °C
CCOc1cc(-n2nc(C(=O)O)cc2-c2ccc(-c3ccco3)cc2)ccc1S(C)(=O)=O [Example 127, 1-[3-Ethoxy-4-(methylsulfonyl)phenyl]-5-[4-(2-furyl)phenyl]-1H-pyrazole-3-carboxylic Acid] | 256 to 257 °C
Cc1cc(-c2cc(C(F)(F)F)nn2-c2ccc(S(C)(=O)=O)c(F)c2)ccc1-c1cscn1 [Example 106, 4-{4-[1-[3-Fluoro-4-(methylsulfonyl)phenyl]-3-(trifluoromethyl)-1H-pyrazol-5-yl]-2-methylphenyl}-1,3-thiazole] | 112 to 114 °C
CS(=O)(=O)c1ccc(-n2nc(C(F)(F)F)cc2-c2ccc(-c3cscn3)cc2)cc1Cl [Example 158, 1-[3-Chloro-4-(methylsulfonyl)phenyl]-5-[4-(4-thiazolyl)phenyl]-3-trifluoromethyl-1H-pyrazole] | 103 to 107 °C
CS(=O)(=O)c1ccc(-n2nc(C(F)(F)F)cc2-c2ccc(-c3ccco3)cc2)cc1C(F)(F)F (as salt: hydrochloride) [Example 135, 5-[4-(2-Furyl)phenyl]-1-[4-(methylsulfonyl)-3-(trifluoromethyl)phenyl]-3-trifluoromethyl-1H-pyrazole] | 159 to 160 °C
